# From patent US10988459B2 (priority 2015, dated 2021)
# Target: human RIP1 kinase domain (2-375) (Homo sapiens (Human), UniProt Q13546)
# Assay: biochemical
# Type: biochemical
# Settings: Table 1; apparent Ki (Morrison tight-binding fit); 50 nM RIP1 kinase domain, 50 uM ATP, 2 hours incubation; read-out: RIP1 Ki
# Method in brief: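 50 nM purified kinase domain from baculovirus-infected insect cells, incubated 2 h with compound in 50 mM Hepes pH 7.5, 30 mM MgCl2, 1 mM DTT, 50 uM ATP, 0.002% Brij-35, 0.5% DMSO. ADP formation read by Transcreener FP at 633 nm excitation. Ki^app fitted with the Morrison tight-binding equation.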
# Sequence of human RIP1 kinase domain (2-375) (Q13546 2-375): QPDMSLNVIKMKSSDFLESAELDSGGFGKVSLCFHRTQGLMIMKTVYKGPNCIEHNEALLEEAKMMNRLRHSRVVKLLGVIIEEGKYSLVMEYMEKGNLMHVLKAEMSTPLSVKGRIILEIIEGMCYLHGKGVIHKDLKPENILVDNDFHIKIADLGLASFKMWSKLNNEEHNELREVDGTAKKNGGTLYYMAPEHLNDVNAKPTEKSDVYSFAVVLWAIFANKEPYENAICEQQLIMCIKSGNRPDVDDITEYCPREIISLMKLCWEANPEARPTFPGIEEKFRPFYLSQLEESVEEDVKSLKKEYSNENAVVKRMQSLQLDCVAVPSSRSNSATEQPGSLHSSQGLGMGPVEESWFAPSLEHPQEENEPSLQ
row,Structure (SMILES),Ki
1,"CN1C(=O)[C@@H](NC(=O)c2n[nH]c3c2CN(CC(F)(F)F)CC3)COc2ccccc21 [Example 5, (S)—N-(5-methyl-4-oxo-2,3,4,5-tetrahydrobenzo[b][1,4]oxazepin-3-yl)-5-(2,2,2-trifluoroethyl)-4,5,6,7-tetrahydro-1H-pyrazolo[4,3-c]pyridine-3-carboxamide]",1500 nM
2,"Cc1cc2n(n1)CC[C@H](NC(=O)c1nnc(Cc3ccccc3)[nH]1)C(=O)N2C [Example 77, (S)-5-benzyl-N-(2,4-dimethyl-5-oxo-5,6,7,8-tetrahydro-4H-pyrazolo[1,5-a][1,3]diazepin-6-yl)-4H-1,2,4-triazole-3-carboxamide]",58 nM
3,"Cc1cc2n(n1)CCC(NC(=O)c1nnc(Cc3ccccc3)[nH]1)C(=O)N2C (stereo not shown) [Example 28, 5-benzyl-N-(2,4-dimethyl-5-oxo-5,6,7,8-tetrahydro-4H-pyrazolo[1,5-a][1,3]diazepin-6-yl)-4H-1,2,4-triazole-3-carboxamide]",137 nM

# Same assay, conditions: Table 5; apparent Ki (Morrison tight-binding fit); 50 nM RIP1 kinase domain, 50 uM ATP, 2 hours incubation; read-out: Ki
row,Structure (SMILES),Ki
1,"CN1C(=O)[C@@H](NC(=O)c2ncn(Cc3ccccc3)n2)CCn2nc(CN3CCOCC3)cc21 (single isomer, unassigned) [Example 720]",155 nM
2,"CN1C(=O)[C@@H](NC(=O)c2ncn(Cc3ccccc3)n2)CCn2nc(CCCN3CCC(F)(F)C3)cc21 [Example 739, 1-benzyl-N-[(6S)-2-[3-(3,3-difluoropyrrolidin-1-yl)propyl]-4-methyl-5-oxo-7,8-dihydro-6H-pyrazolo[1,5-a][1,3]diazepin-6-yl]-1,2,4-triazole-3-carboxamide]",36 nM
3,"CN1C(=O)[C@@H](NC(=O)c2nc3n(n2)CCN(C)C3c2ccccc2)COc2ccccc21 (single isomer, unassigned) [Example 730]",112 nM
4,"CN1C(=O)C(NC(=O)c2ncn(Cc3ccccc3)n2)CCn2nc(CN3CCC(F)(F)C3)cc21 (single isomer, unassigned) [Example 719, 1-benzyl-N-[2-[(3,3-difluoropyrrplidin-1-yl)methyl]-4-methyl-5-oxo-7,8-dihydro-6H-pyrazolo[1,5-a][1,3]diazepin-6-yl]-1,2,4-triazole-3-carboxamide]",214 nM
5,"CN1C(=O)[C@@H](NC(=O)c2nc3n(n2)CCNC3C(F)(F)F)COc2ccccc21 (stereo partly drawn) [Example 787, N-[(3S)-5-methyl-4-oxo-2,3-dihydro-1,5-benzoxazepin-3-yl]-8-(trifluoromethyl)-5,6,7,8-tetrahydro-[1,2,4]triazolo [1,5-a]pyrazine-2-carboxamide]",309 nM
6,"CN1C(=O)C(NC(=O)c2ncn(Cc3ccccc3)n2)CCn2nc(CN3CC(F)C3)cc21 (single isomer, unassigned) [Example 721, 1-benzyl-N-[2-[(3-fluoroazetidin-1-yl)methyl]-4-methyl-5-oxo-7,8-dihydro-6H-pyrazolo[1,5-a][1,3]diazepin-6-yl]-1,2,4-triazole-3-carboxamide]",355 nM
7,"CC[C@@]1(C)OCc2cnc(C(=O)N[C@H]3COc4ccccc4N(C)C3=O)cc21 (single isomer, unassigned) [Example 765]",15 nM

# Same assay, conditions: human RIP1 kinase domain (2-375), 50 uM ATP, 2 hours incubation, Transcreener ADP assay; read-out: RIP1 Ki
row,Structure (SMILES),Ki
1,"CN1C(=O)C(NC(=O)c2nnc(Cc3ccccc3)[nH]2)CCn2nc3c(c21)CS(=O)(=O)C3 (stereo not shown) [Example 141, 5-benzyl-N-(1-methyl-9,9-dioxido-2-oxo-1,2,3,4,5,10-hexahydro-8H-thieno[3′,4′:3,4]pyrazolo[1,5-a][1,3]diazepin-3-yl)-4H-1,2,4-triazole-3-carboxamide]",544 nM
2,"CN1C(=O)[C@@H](NC(=O)c2nnn3c2CC(c2ccccc2)C3)COc2ccccc21 (stereo partly drawn) [Example 119, N—((S)-5-methyl-4-oxo-2,3,4,5-tetrahydrobenzo[b][1,4]oxazepin-3-yl)-5-phenyl-5,6-dihydro-4H-pyrrolo[1,2-c][1,2,3]triazole-3-carboxamide]",201 nM
3,"CN1C(=O)C(NC(=O)c2ncn(Cc3ccccc3)n2)CCn2nc3c(c21)CS(=O)(=O)C3 (stereo not shown) [Example 140, 1-benzyl-N-(1-methyl-9,9-dioxido-2-oxo-1,2,3,4,5,10-hexahydro-8H-thieno[3′,4′:3,4]pyrazolo[1,5-a][1,3]diazepin-3-yl)-1H-1,2,4-triazole-3-carboxamide]",316 nM
4,"CN1C(=O)C(NC(=O)c2nnc(Cc3ccccc3)[nH]2)CCCn2nc(C3CC3)cc21 (stereo not shown) [Example 105, 5-benzyl-N-(2-cyclopropyl-4-methyl-5-oxo-4,5,6,7,8,9-hexahydropyrazolo[1,5-a][1,3]diazocin-6-yl)-4H-1,2,4-triazole-3-carboxamide]",262 nM

# Same assay, conditions: human RIP1 kinase domain (2-375), Transcreener ADP assay, 50 uM ATP, 2 hours incubation; read-out: RIP1 Ki
row,Structure (SMILES),Ki
1,"CC[C@@]1(C)OCc2cnc(C(=O)N[C@H]3CCn4nc([C@@H]5CC5(F)F)cc4N(C)C3=O)cc21 [Example 325, (R)—N—((S)-2-((S)-2,2-difluorocyclopropyl)-4-methyl-5-oxo-5,6,7,8-tetrahydro-4H-pyrazolo[1,5-a][1,3]diazepin-6-yl)-1-ethyl-1-methyl-1,3-dihydrofuro[3,4-c]pyridine-6-carboxamide]",3340 nM

# Same assay, conditions: read-out: RIP1 Ki
row,Structure (SMILES),Ki
1,"CC1CCc2n[nH]c(C(=O)N[C@H]3COc4ccccc4N(C)C3=O)c2C1 (stereo partly drawn) [Example 45, 5-methyl-N-((S)-5-methyl-4-oxo-2,3,4,5-tetrahydrobenzo[b][1,4]oxazepin-3-yl)-4,5,6,7-tetrahydro-2H-indazole-3-carboxamide]",62.6 nM

# Same assay, conditions: tight-binding apparent inhibition constant; human RIP1 kinase domain (2-375) 50 nM, 50 uM ATP, 2 hours; read-out: Ki
row,Structure (SMILES),Ki
1,"CN1C(=O)[C@H](NC(=O)c2nnc(Cc3ccccc3)[nH]2)CCn2nc([C@H]3CC3(F)F)cc21 (racemic) [Example 673, 5-benzyl-N-[rac-(6R)-4-methyl-5-oxo-2-[rac-(1R)-2,2-difluorocyclopropyl]-7,8-dihydro-6H-pyrazolo[1,5-a] [1,3]diazepin-6-yl]-4H-1,2,4-triazole-3-carboxamide]",41.2 nM
2,"O=C(N[C@H]1COc2cc(F)cc(F)c2NC1=O)c1nc2n(n1)CCO[C@H]2c1ccccc1 [Example 640, (8S)-8-phenyl-N-[(3S)-6,8-difluoro-4-oxo-3,5-dihydro-2H-1,5-benzoxazepin-3-yl]-6,8-dihydro-5H-[1,2,4]triazolo[5,1-c][1,4]oxazine-2-carboxamide]",9.4 nM
3,"CN1C(=O)[C@@H](NC(=O)c2nc3n(n2)[C@@H](C(F)(F)F)CCC3)COc2ccccc21 (single isomer, unassigned) [Example 425]",471 nM
4,"Cc1cc(F)c2c(c1)OC[C@H](NC(=O)c1nc3n(n1)CCO[C@@H]3c1ccccc1)C(=O)N2 [Example 643, (8R)-8-phenyl-N-[(3S)-6-fluoro-8-methyl-4-oxo-3,5-dihydro-2H-1,5-benzoxazepin-3-yl]-6,8-dihydro-5H-[1,2,4]triazolo[5,1-c][1,4]oxazine-2-carboxamide]",360 nM
5,"CN1C(=O)[C@@H](NC(=O)c2ncc3cnn(-c4ccccc4)c3n2)COc2ccccc21 [Example 536, phenyl-N-[(3S)-5-methyl-4-oxo-2,3-dihydro-1,5-benzoxazepin-3-yl]pyrazolo[3,4-d]pyrimidine-6-carboxamide]",3.5 nM
6,"Cc1cc2n(n1)CC[C@H](NC(=O)c1ncn(Cc3cccc(Cl)c3)n1)C(=O)N2C [Example 521, 1-[(3-chlorophenyl)methyl]-N-(6S)-2,4-dimethyl-5-oxo-7,8-dihydro-6H-pyrazolo[1,5-a][1,3]diazepin-6-yl-1,2,4-triazole-3-carboxamide]",6.9 nM
7,CN1C(=O)[C@@H](NC(=O)c2ncn(CC3(C)CCC3)n2)CCn2nc(C3CC3)cc21 [Example 561],100 nM
8,"CCC1CCCc2nc(C(=O)N[C@H]3CCn4nccc4N(C)C3=O)nn21 (stereo partly drawn) [Example 379, 5-ethyl-N—((S)-4-methyl-5-oxo-5,6,7,8-tetrahydro-4H-pyrazolo[1,5-a][1,3]diazepin-6-yl)-5,6,7,8-tetrahydro-[1,2,4]triazolo[1,5-a]pyridine-2-carboxamide]",374 nM
9,"Cc1cc2n(n1)CC[C@@H](NC(=O)c1ncc3cnn(-c4ccccn4)c3n1)C(=O)N2C [Example 633, 1-(2-pyridyl)-N-[(6R)-2,4-dimethyl-5-oxo-7,8-dihydro-6H-pyrazolo[1,5-a][1,3]diazepin-6-yl]pyrazolo[3,4-d]pyrimidine-6-carboxamide]",3800 nM
10,CN1C(=O)[C@@H](NC(=O)c2ncn(CC3CCCOC3)n2)CCn2nc(C3CC3)cc21 (stereo partly shown) [Example 478],290 nM
11,"CN1C(=O)[C@@H](NC(=O)c2ncn(Cc3cccc(F)c3F)n2)CCn2nccc21 (racemic) [Example 342, 1-[(2,3-difluorophenyl)methyl]-N-[rac-(6S)-4-methyl-5-oxo-7,8-dihydro-6H-pyrazolo[1,5-a][1,3]diazepin-6-yl]-1,2,4-triazole-3-carboxamide]",10.9 nM
12,"O=C(N[C@H]1COc2cc(F)cc(F)c2NC1=O)c1nc2cccc(C(F)(F)F)n2n1 [Example 417, (S)—N-(6,8-difluoro-4-oxo-2,3,4,5-tetrahydrobenzo[b][1,4]oxazepin-3-yl)-5-(trifluoromethyl)-[1,2,4]triazolo[1,5-a]pyridine-2-carboxamide]",36.5 nM
13,CN1C(=O)[C@@H](NC(=O)c2ncc3c(n2)C2(CCCC2)OC3)COc2ccccc21 [Example 482],5.7 nM
14,"CN1C(=O)[C@@H](NC(=O)c2nc3cccc(-c4ccoc4)n3n2)CCn2nccc21 [Example 389, (S)-5-(furan-3-yl)-N-(4-methyl-5-oxo-5,6,7,8-tetrahydro-4H-pyrazolo[1,5-a][1,3]diazepin-6-yl)-[1,2,4]triazolo[1,5-a]pyridine-2-carboxamide]",173 nM
15,CN1C(=O)[C@@H](NC(=O)c2ncc3cnn(-c4c(F)cccc4F)c3n2)COc2ccccc21 [Example 595],4.7 nM
